Source: article PMC9029089, “1,5-Disubstituted Acylated 2-Amino-4,5-dihydroimidazoles as a New Class of Retinoic Acid Receptor–Related Orphan Receptor (ROR) Inhibitors” (International Journal of Molecular Sciences, 2022)

What follows are compounds tested against T1, RORγ (Mus musculus, UniProt P51450) (assay: Gal4-RORγ-LBD UAS-luciferase reporter assay in TRex-CHO-K1 cells (doxycycline-stimulated)). Conditions: individual controls 1295.201-307, 5 μg/ml, triplicate.
T1 construct: mRORγ (Pro-261-end); expressed in transfected cells
T1 sequence (P51450 261-516 limits assumed): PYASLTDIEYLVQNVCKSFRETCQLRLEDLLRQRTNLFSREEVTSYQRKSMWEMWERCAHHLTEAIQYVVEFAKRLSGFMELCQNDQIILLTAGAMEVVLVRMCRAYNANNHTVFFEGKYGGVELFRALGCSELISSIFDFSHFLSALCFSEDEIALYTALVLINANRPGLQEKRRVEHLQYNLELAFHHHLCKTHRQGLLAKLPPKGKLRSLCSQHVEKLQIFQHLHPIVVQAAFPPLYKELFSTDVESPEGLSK
Format: cell-based
Source text: The Gal4-DBD-ROR-LBD fusion proteins were subcloned in the pcDNA4/TO expression vector (Thermo Scientific) and transfected into TRex-CHO-K1 cells (Thermo Scientific) for tetracycline-controlled expression of the corresponding ROR proteins. Transfected cells were selected with hygromycin and Zeocin and individual clones for each of the Gal4-RORγ, Gal4-RORα, and Gal4-RORβ cell lines were isolated using a standard serial dilution protocol. Clones with the highest doxycycline-dependent stimulation of luciferase activity were selected for all functional experiments.
For screening FIU libraries, cells were resuspended in Ham’s F-12 assay medium containing 2% charcoal-treated FBS and no selection drugs. […] Cells were allowed to attach for 2 h, followed by compound treatment and stimulation with 20 ng/mL doxycycline for an additional 16–20 h. Appropriate solvent controls, negative controls with no doxycycline, and blanks with no cells were included in every plate. Prior to measuring luciferase activity, 6 µL of 0.15 mg/mL resazurin (Cayman Chemical) in PBS were added and cells were incubated for 1 h at 37 °C. Fluorescence intensity was detected at 545 nm excitation/590 nm emission using a CLARIOstar reader (BMGLabtech) as a measure of cell viability, to identify any potential cytotoxic effect of test compounds and mixtures.
Luminescence was normalized by the fluorescence intensity and the percentage of inhibition was calculated with respect to control cells stimulated with doxycycline in the presence of solvent control (0.1% DMF). All primary screens with individual compounds were performed in triplicate with a final concentration of 5 µg/mL. […] IC50 values were calculated using GraphPrism (GraphPad software).

Row | Compound | % Inhibition RORγ 5 μg/ml [%]
1 | CCC(CN1C(NC(=O)Cc2ccccc2)=NCC1Cc1ccccc1)c1ccccc1 (mixture of isomers) [1295.235] | 35.8
2 | CC(CCN1C(NC(=O)Cc2ccccc2)=NCC1Cc1ccccc1)c1ccccc1 (mixture of isomers) [1295.236] | 26.8
3 | CC(C)Cc1ccc(C(C)CN2C(NC(=O)Cc3ccccc3)=NCC2Cc2ccccc2)cc1 (mixture of isomers) [1295.245] | 21.5
4 | CCC(C)CN1C(NC(=O)Cc2ccccc2)=NCC1Cc1ccccc1 (mixture of isomers) [1295.256] | -8.1
5 | CC(C)Cc1ccc(C(C)C(=O)NC2=NCC(Cc3ccccc3)N2CCc2ccccc2)cc1 (mixture of isomers) [1295.283] | 58.6
6 | CCC(C)C(=O)NC1=NCC(Cc2ccccc2)N1CCc1ccccc1 (mixture of isomers) [1295.296] | 41.7
7 | C[C@H]1CN=C(NC(=O)Cc2ccccc2)N1CCc1ccccc1 [1295.201] | -40.7
8 | O=C(Cc1ccccc1)NC1=NC[C@H](Cc2ccccc2)N1CCc1ccccc1 [1295.202] | 0.0
9 | O=C(Cc1ccccc1)NC1=NCCN1CCc1ccccc1 [1295.203] | -29.5
10 | CC(C)C[C@H]1CN=C(NC(=O)Cc2ccccc2)N1CCc1ccccc1 [1295.205] | 54.1
11 | CC(C)[C@H]1CN=C(NC(=O)Cc2ccccc2)N1CCc1ccccc1 [1295.206] | 32.7
12 | O=C(Cc1ccccc1)NC1=NC[C@H](Cc2ccc(O)cc2)N1CCc1ccccc1 [1295.207] | -85.0
13 | C[C@@H]1CN=C(NC(=O)Cc2ccccc2)N1CCc1ccccc1 [1295.208] | -9.3
14 | O=C(Cc1ccccc1)NC1=NC[C@@H](Cc2ccccc2)N1CCc1ccccc1 [1295.209] | 46.8
15 | CC(C)C[C@@H]1CN=C(NC(=O)Cc2ccccc2)N1CCc1ccccc1 [1295.211] | 38.8
16 | CC(C)[C@@H]1CN=C(NC(=O)Cc2ccccc2)N1CCc1ccccc1 [1295.212] | 33.3
17 | CC1(C)CN=C(NC(=O)Cc2ccccc2)N1CCc1ccccc1 [1295.214] | 1.6
18 | CCC[C@H]1CN=C(NC(=O)Cc2ccccc2)N1CCc1ccccc1 [1295.215] | 31.5
19 | CCC[C@@H]1CN=C(NC(=O)Cc2ccccc2)N1CCc1ccccc1 [1295.216] | 24.5
20 | CCCC[C@H]1CN=C(NC(=O)Cc2ccccc2)N1CCc1ccccc1 [1295.217] | 13.0
21 | CCCC[C@@H]1CN=C(NC(=O)Cc2ccccc2)N1CCc1ccccc1 [1295.218] | -11.7
22 | O=C(Cc1ccccc1)NC1=NC[C@H](c2ccccc2)N1CCc1ccccc1 [1295.219] | 0.1
23 | O=C(Cc1ccccc1)NC1=NC[C@@H](c2ccccc2)N1CCc1ccccc1 [1295.220] | -5.2

Row | Compound | % Inhibition RORγ 5 μg/ml [%]
24 | O=C(Cc1ccccc1)NC1=NC[C@H](Cc2ccc3ccccc3c2)N1CCc1ccccc1 [1295.221] | 31.3
25 | O=C(Cc1ccccc1)NC1=NC[C@@H](Cc2ccc3ccccc3c2)N1CCc1ccccc1 [1295.222] | 22.4
26 | O=C(Cc1ccccc1)NC1=NC[C@H](CC2CCCCC2)N1CCc1ccccc1 [1295.223] | 3.4
27 | O=C(Cc1ccccc1)NC1=NC[C@@H](CC2CCCCC2)N1CCc1ccccc1 [1295.224] | 9.6
28 | O=C(Cc1ccccc1)NC1=NC[C@H](Cc2ccc(Cl)cc2)N1CCc1ccccc1 [1295.225] | -32.6
29 | O=C(Cc1ccccc1)NC1=NC[C@@H](Cc2ccc(Cl)cc2)N1CCc1ccccc1 [1295.226] | 6.9
30 | O=C(Cc1ccccc1)NC1=NC[C@H](Cc2ccc(F)cc2)N1CCc1ccccc1 [1295.227] | -8.2
31 | O=C(Cc1ccccc1)NC1=NC[C@@H](Cc2ccc(F)cc2)N1CCc1ccccc1 [1295.228] | 31.3
32 | O=C(Cc1ccccc1)NC1=NC[C@H](Cc2cccnc2)N1CCc1ccccc1 [1295.229] | -23.1
33 | O=C(Cc1ccccc1)NC1=NC[C@@H](Cc2cccnc2)N1CCc1ccccc1 [1295.230] | -16.0
34 | CC(C)(C)[C@H]1CN=C(NC(=O)Cc2ccccc2)N1CCc1ccccc1 [1295.231] | -31.5
35 | CC(C)(C)[C@@H]1CN=C(NC(=O)Cc2ccccc2)N1CCc1ccccc1 [1295.232] | 8.2
36 | CCOc1ccc(C[C@H]2CN=C(NC(=O)Cc3ccccc3)N2CCc2ccccc2)cc1 [1295.233] | 31.0
37 | CCOc1ccc(C[C@@H]2CN=C(NC(=O)Cc3ccccc3)N2CCc2ccccc2)cc1 [1295.234] | -7.7
38 | Cc1cccc(CCN2C(NC(=O)Cc3ccccc3)=NC[C@@H]2Cc2ccccc2)c1 [1295.237] | -4.8
39 | O=C(Cc1ccccc1)NC1=NC[C@H](Cc2ccccc2)N1CCc1cccc(F)c1 [1295.238] | 34.6
40 | O=C(Cc1ccccc1)NC1=NC[C@H](Cc2ccccc2)N1CCc1cccc(Br)c1 [1295.239] | 47.8
41 | O=C(Cc1ccccc1)NC1=NC[C@H](Cc2ccccc2)N1CCc1ccc(F)cc1 [1295.240] | 52.2
42 | COc1cccc(CCN2C(NC(=O)Cc3ccccc3)=NC[C@@H]2Cc2ccccc2)c1 [1295.241] | 7.4
43 | O=C(Cc1ccccc1)NC1=NC[C@H](Cc2ccccc2)N1CCc1ccc(Br)cc1 [1295.242] | 67.1
44 | COc1ccc(CCN2C(NC(=O)Cc3ccccc3)=NC[C@@H]2Cc2ccccc2)cc1 [1295.243] | 27.2
45 | CCOc1ccc(CCN2C(NC(=O)Cc3ccccc3)=NCC2Cc2ccccc2)cc1 (stereo not shown) [1295.244] | 5.9
46 | O=C(Cc1ccccc1)NC1=NC[C@H](Cc2ccccc2)N1CCc1cc(C(F)(F)F)cc(C(F)(F)F)c1 [1295.246] | 20.0

Row | Compound | % Inhibition RORγ 5 μg/ml [%]
47 | COc1ccc(CCCN2C(NC(=O)Cc3ccccc3)=NC[C@H]2Cc2ccccc2)cc1OC [1295.247] | 32.5
48 | COc1ccc(CCN2C(NC(=O)Cc3ccccc3)=NC[C@@H]2Cc2ccccc2)cc1OC [1295.249] | 42.2
49 | O=C(Cc1ccccc1)NC1=NC[C@H](Cc2ccccc2)N1CCc1ccccc1 [1295.250] | 9.9
50 | O=C(Cc1ccccc1)NC1=NC[C@H](Cc2ccccc2)N1CCCc1ccccc1 [1295.251] | -112.4
51 | O=C(Cc1ccccc1)NC1=NC[C@H](Cc2ccccc2)N1CCCCc1ccccc1 [1295.252] | -2.3
52 | CCCCN1C(NC(=O)Cc2ccccc2)=NC[C@@H]1Cc1ccccc1 [1295.253] | -12.1
53 | CCCCCCCN1C(NC(=O)Cc2ccccc2)=NC[C@@H]1Cc1ccccc1 [1295.254] | 48.4
54 | CC(C)CN1C(NC(=O)Cc2ccccc2)=NC[C@@H]1Cc1ccccc1 [1295.255] | -9.8
55 | CC(C)CCN1C(NC(=O)Cc2ccccc2)=NC[C@@H]1Cc1ccccc1 [1295.257] | -28.5
56 | CC(C)(C)CN1C(NC(=O)Cc2ccccc2)=NC[C@@H]1Cc1ccccc1 [1295.259] | -25.1
57 | O=C(Cc1ccccc1)NC1=NC[C@H](Cc2ccccc2)N1CC1CCCCC1 [1295.260] | -10.7
58 | O=C(Cc1ccccc1)NC1=NC[C@H](Cc2ccccc2)N1CC1CCCCCC1 [1295.263] | -8.4
59 | CCN1C(NC(=O)Cc2ccccc2)=NC[C@@H]1Cc1ccccc1 [1295.264] | 7.5
60 | O=C(Cc1ccccc1)NC1=NC[C@H](Cc2ccccc2)N1CC1CCC1 [1295.265] | 53.1
61 | O=C(Cc1ccccc1)NC1=NC[C@H](Cc2ccccc2)N1CC1CCCC1 [1295.266] | 99.6
62 | O=C(Cc1ccccc1)NC1=NC[C@H](Cc2ccccc2)N1CCCC1CCCC1 [1295.267] | 56.2
63 | Cc1cccc(CC(=O)NC2=NC[C@H](Cc3ccccc3)N2CCc2ccccc2)c1 [1295.275] | 60.7
64 | O=C(Cc1cccc(F)c1)NC1=NC[C@H](Cc2ccccc2)N1CCc1ccccc1 [1295.276] | 104.2
65 | O=C(Cc1cccc(Br)c1)NC1=NC[C@H](Cc2ccccc2)N1CCc1ccccc1 [1295.277] | 97.6
66 | O=C(Cc1ccc(F)cc1)NC1=NC[C@H](Cc2ccccc2)N1CCc1ccccc1 [1295.278] | 29.8
67 | COc1cccc(CC(=O)NC2=NC[C@H](Cc3ccccc3)N2CCc2ccccc2)c1 [1295.279] | 75.2
